According to the supplement of paper PMC10307832:

Columns and labels:
Assay in all cases: relative viability (nuclei count vs DMSO), 5 days (fraction); higher = more cells survive
Dinaciclib + Vorinostat = compound: CCc1cnn2c(NCc3ccc[n+]([O-])c3)cc(N3CCCC[C@H]3CCO)nc12 [Dinaciclib] + O=C(CCCCCCC(=O)Nc1ccccc1)NO [Vorinostat] (partner 1 µM)
Summary of the method: (§1)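 Relative viability equals treated-well nuclei counts divided by vehicle-well nuclei counts. Counts came from 4× images of lung cancer cell lines grown in 1536-well plates for 5 days after pin-tool dosing on the day after seeding. Dosing used one drug alone or a fixed anchor-drug dose plus five library-drug doses (not always all listed) in √10 steps, and values are medians of duplicate plates.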

Dinaciclib + Foretinib = compound: CCc1cnn2c(NCc3ccc[n+]([O-])c3)cc(N3CCCC[C@H]3CCO)nc12 [Dinaciclib] + COc1cc2c(Oc3ccc(NC(=O)C4(C(=O)Nc5ccc(F)cc5)CC4)cc3F)ccnc2cc1OCCCN1CCOCC1 [Foretinib] (partner 0.25 µM)
Summary of the method: as §1

Dinaciclib + Bortezomib = compound: CCc1cnn2c(NCc3ccc[n+]([O-])c3)cc(N3CCCC[C@H]3CCO)nc12 [Dinaciclib] + CC(C)C[C@H](NC(=O)[C@H](Cc1ccccc1)NC(=O)c1cnccn1)B(O)O [Bortezomib] (partner 0.002 µM)
Summary of the method: as §1

Dinaciclib + Tozasertib = compound: CCc1cnn2c(NCc3ccc[n+]([O-])c3)cc(N3CCCC[C@H]3CCO)nc12 [Dinaciclib] + Cc1cc(Nc2cc(N3CCN(C)CC3)nc(Sc3ccc(NC(=O)C4CC4)cc3)n2)n[nH]1 [Tozasertib] (partner 0.1 µM)
Summary of the method: as §1

Dinaciclib + Luminespib = compound: CCc1cnn2c(NCc3ccc[n+]([O-])c3)cc(N3CCCC[C@H]3CCO)nc12 [Dinaciclib] + CCNC(=O)c1noc(-c2cc(C(C)C)c(O)cc2O)c1-c1ccc(CN2CCOCC2)cc1 [Luminespib] (partner 0.01 µM)
Summary of the method: as §1

Cell Line	relative viability (Dinaciclib + Vorinostat; first compound 0.009487 µM)	relative viability (Dinaciclib + Vorinostat; first compound 0.03 µM)	relative viability (Dinaciclib + Vorinostat; first compound 0.09487 µM)	relative viability (Dinaciclib + Vorinostat; first compound 0.3 µM)	relative viability (Dinaciclib + Foretinib; first compound 0.009487 µM)	relative viability (Dinaciclib + Foretinib; first compound 0.03 µM)	relative viability (Dinaciclib + Foretinib; first compound 0.09487 µM)	relative viability (Dinaciclib + Foretinib; first compound 0.3 µM)	relative viability (Dinaciclib + Bortezomib; first compound 0.009487 µM)	relative viability (Dinaciclib + Bortezomib; first compound 0.03 µM)	relative viability (Dinaciclib + Bortezomib; first compound 0.09487 µM)	relative viability (Dinaciclib + Bortezomib; first compound 0.3 µM)	relative viability (Dinaciclib + Tozasertib; first compound 0.009487 µM)	relative viability (Dinaciclib + Tozasertib; first compound 0.03 µM)	relative viability (Dinaciclib + Tozasertib; first compound 0.09487 µM)	relative viability (Dinaciclib + Tozasertib; first compound 0.3 µM)	relative viability (Dinaciclib + Luminespib; first compound 0.009487 µM)	relative viability (Dinaciclib + Luminespib; first compound 0.03 µM)	relative viability (Dinaciclib + Luminespib; first compound 0.09487 µM)	relative viability (Dinaciclib + Luminespib; first compound 0.3 µM)
NCI-H1650	0.798	0.175	0.119	0.125	1.1	0.336	0.167	0.14	0.172	0.178	0.158	0.142	0.363	0.176	0.119	0.147	0.226	0.204	0.158	0.172
NCI-H1651	0.616	0.534	0.358	0.0861	0.858	0.683	0.0694	0.0598	0.96	0.763	0.25	0.0931	0.633	0.58	0.0798	0.0626	0.695	0.554	0.0648	0.0578
NCI-H1666	1.28	0.67	0.535	0.625	0.832	0.318	0.38	0.328	0.528	0.19	0.164	0.18	0.586	0.284	0.275	0.276	1.07	0.361	0.357	0.305
NCI-H1734	0.571	0.144	0.142	0.126	0.803	0.164	0.132	0.129	0.644	0.148	0.121	0.116	0.208	0.13	0.133	0.111	0.165	0.129	0.119	0.0997
NCI-H1755	0.739	0.452	0.227	0.242	0.917	0.516	0.198	0.196	0.889	0.884	0.171	0.17	0.53	0.401	0.2	0.234	0.395	0.624	0.147	0.14
NCI-H1915	0.534	0.291	0.116	0.104	0.731	0.193	0.124	0.173	0.81	0.23	0.112	0.105	0.303	0.149	0.13	0.115	0.292	0.142	0.0885	0.093
NCI-H1975	0.677	0.39	0.144	0.15	0.868	0.185	0.107	0.099	0.29	0.126	0.109	0.12	0.927	0.416	0.082	0.071	0.237	0.145	0.12	0.135
NCI-H1993	0.651	0.281	0.42	0.308	0.922	0.584	0.65	0.544	1.18	0.551	–	0.61	0.505	0.623	0.595	0.565	0.723	0.472	0.53	0.474
NCI-H2009	0.806	0.202	0.0818	0.0781	1.3	0.144	0.103	0.0969	0.88	0.101	0.069	0.0948	0.599	0.231	0.112	0.106	0.649	0.0986	0.101	0.101
NCI-H2023	0.678	0.08	0.0556	0.0518	0.948	0.0806	0.0663	0.0474	1	0.066	0.0634	0.0575	0.446	0.0768	0.0628	0.0577	0.561	0.058	0.055	0.0469
NCI-H2085	0.907	0.503	0.221	0.214	1.16	0.259	0.194	0.241	1.06	0.446	0.26	0.233	0.802	0.373	0.3	0.308	0.417	0.195	0.186	0.169
NCI-H2087	0.753	0.114	0.12	0.0878	0.93	0.118	0.0913	0.106	0.998	0.135	0.142	0.123	0.222	0.0979	0.0821	0.0868	0.189	0.107	0.0516	0.0567
NCI-H2126	0.817	0.345	0.176	0.194	1.08	0.803	0.194	0.312	1.06	0.973	0.524	0.208	0.799	0.218	0.222	0.19	0.873	0.202	0.201	0.21
NCI-H2228	0.749	0.213	0.131	0.136	0.87	0.36	0.104	0.11	0.934	0.0992	0.119	0.102	0.333	0.137	0.0995	0.0912	0.147	0.127	0.116	0.0939
NCI-H2347	0.515	0.304	0.252	0.228	0.824	0.248	0.298	0.261	1.23	0.226	0.239	0.215	0.425	0.17	0.138	0.174	0.249	0.12	0.105	0.118
NCI-H2405	0.813	0.211	0.217	0.201	1.02	0.256	0.248	0.238	0.904	0.761	0.207	0.271	0.619	0.2	0.213	0.208	0.688	0.231	0.193	0.247
